Tests used:
[1] = biological target: T1, human TREK1 single channels (Homo sapiens, UniProt O95069); experiment: Single-channel recording, excised inside-out patches from HEK293 cells; type: biochemical; settings: 10 μM on intracellular side, +60 mV
T1 construct: expressed in transfected cells
Method: Human TREK1 single channels were recorded in excised inside‐out membrane patches using an Axopatch 200B patch‐clamp amplifier and pCLAMP 10 software. Inside‐out membrane patches were excised from HEK293 cells expressing human TREK1 channels. Sylguard® 184‐coated glass pipettes with resistance around 10–15 MΩ were used. Pipette and bath compositions for inside‐out patches were opposite to those used in voltage‐clamp, that is, the pipette solution on the extracellular face of the channels contained 130 mM K and the bath solution on the intracellular face of the channel contained 4.7 mM K. Channel activities were recorded at +60 mV. The action of a hTREK1 opener was tested by addition to the intracellular solution. Single‐channel records were filtered with an eight‐pole Bessel filter (model LHBF‐48X, npi electronic GmbH, Tamm, Germany) at a corner frequency (fc) of 2 kHz and acquired using a DigiData 1440A interface and pCLAMP 10 software at a sampling rate of 20 kHz. Single‐channel traces were generated without further filtering.

Kv11.1 (hERG) = Kv11.1 (hERG) (Homo sapiens, UniProt Q12809); settings: 10 μM
hTREK1 [2] = biological target: T2, hTREK1 (Homo sapiens, UniProt O95069); experiment: Whole-cell patch clamp, transiently transfected tsA-201 cells, TREK1; type: cell-based; set-up: expressed in transfected cells; host or cells: tsA-201, transient, pcDNA3.1 vector, GFP from a separate vector; settings: 1 μM, n = 6
T2 sequence (O95069 1-426): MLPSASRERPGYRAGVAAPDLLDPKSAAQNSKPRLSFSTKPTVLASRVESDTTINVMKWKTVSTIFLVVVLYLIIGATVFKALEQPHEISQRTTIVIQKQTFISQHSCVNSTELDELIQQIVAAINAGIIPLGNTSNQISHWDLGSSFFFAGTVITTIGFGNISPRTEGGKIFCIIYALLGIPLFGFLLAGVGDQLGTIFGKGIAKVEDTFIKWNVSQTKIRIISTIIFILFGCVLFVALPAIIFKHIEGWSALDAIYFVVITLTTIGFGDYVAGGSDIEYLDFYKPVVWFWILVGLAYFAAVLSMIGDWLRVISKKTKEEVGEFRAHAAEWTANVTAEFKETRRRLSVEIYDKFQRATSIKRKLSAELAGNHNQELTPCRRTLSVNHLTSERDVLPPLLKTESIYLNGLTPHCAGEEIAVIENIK
Method: Recordings of hTREK1, hTREK1∆N, hTREK2, hTRAAK and […] currents from transiently transfected tsA‐201 cells were performed using methods as described in Veale and Mathie (2016). Briefly, the pcDNA3.1 vector was cloned with the gene of interest, and these vectors and a similar vector containing GFP were incorporated into the tsA201 cells (0.5 μg per well) using the calcium phosphate method. The cells were incubated for 6–12 h at 37°C in […] and 5% carbon dioxide. Cells were then washed using a PBS solution and used for experiments after 24 h.
Currents were recorded using whole‐cell patch‐clamp using an Axopatch 1D amplifier. Cells were placed in a recording chamber filled with an external medium composed of 145 mM, NaCl, 2.5 mM KCl, 3 mM MgCl2, 1 mM CaCl2 and 10 mM HEPES (pH to 7.4, using NaOH). The internal medium used in the glass pipette comprised 150 mM KCl, 3 mM MgCl2, 5 mM (or 0.1 mM) EGTA and 10 mM HEPES (pH to 7.4, using KOH). GI‐530159 was applied by bath perfusion. Currents were recorded and analysed using pCLAMP 10.2 software Microsoft Excel. The voltage protocol used for recording current through K2P channels was as previously described (Veale and Mathie, 2016). For analysis, we measured the current difference between the −80 and −40 mV steps.

TASK3 (K2P9.1) = TASK3 (K2P9.1) (Homo sapiens, UniProt Q9NPC2); experiment: Activated current, TASK3 channels; type: cell-based; settings: 1 μM; n = 5
KCa1.1 (BK) = KCa1.1 (BK) (Homo sapiens, UniProt Q12791); experiment: Manual patch clamp in recombinant cell lines, BK; type: cell-based; settings: 10 μM; n = 4
Kv7.1 = Kv7.1 (Homo sapiens, UniProt P51787); experiment: Rb+ efflux assay, Kv7.1; type: cell-based
hTREK1 [3] = biological target: T2, hTREK1; experiment: Automated whole-cell patch clamp (Qpatch), CHO–TREK1 cells; type: cell-based; set-up: expressed in transfected cells; settings: 1 μM; stably transfected CHO cells
Method: Automated patch‐clamp studies were performed with the Qpatch Sophion Bioscience A/S (Ballerup, Denmark) automated patch‐clamp platform. Sixteen‐well Qplates were loaded with CHO cells stably expression human recombinant TREK1 (CHO–TREK1 cells) in external buffer containing (in mM) 148 NaCl, 5 KCl, 1 CaCl2, 1 MgCl2, 10 HEPES and 10 glucose. Internal recording solution was (in mM) 100 K gluconate, 40 KCl, 1 MgCl2, 10 BAPTA, 10 HEPES and 1 MgATP.
Supplementary Information
Supplementary Figure S1: Activation of hTREK1 current by GI-530159 in automated patch […]
Figure S1: Activation of hTREK1 current by GI-530159 in automated patch recordings.
A) Human TREK1 current elicited by pulse protocol shown recorded on Qpatch 16 automated patch clamp platform after administration of 0.1% DMSO vehicle, 1 µM GI-530159 or after washout with 0.1% DMSO. B) Time course of TREK1 current amplitude recorded at 0 mV on Qpatch platform before during and after washout of 1 µM GI-530159.
(1 picture or pasted object on this page, not shown here)

Chain of TASK3 (K2P9.1) (Q9NPC2 whole entry, species assumed): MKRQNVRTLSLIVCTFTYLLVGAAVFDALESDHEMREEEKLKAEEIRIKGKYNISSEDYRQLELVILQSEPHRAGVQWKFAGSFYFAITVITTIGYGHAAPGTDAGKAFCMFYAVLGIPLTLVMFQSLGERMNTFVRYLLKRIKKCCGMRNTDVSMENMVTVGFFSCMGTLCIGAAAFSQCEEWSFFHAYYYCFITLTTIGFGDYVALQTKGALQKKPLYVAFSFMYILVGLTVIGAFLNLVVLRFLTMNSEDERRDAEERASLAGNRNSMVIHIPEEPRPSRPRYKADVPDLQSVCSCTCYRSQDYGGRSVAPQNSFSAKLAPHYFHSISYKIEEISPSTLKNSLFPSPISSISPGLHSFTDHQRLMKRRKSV
Chain of KCa1.1 (BK) (Q12791 whole entry, species assumed): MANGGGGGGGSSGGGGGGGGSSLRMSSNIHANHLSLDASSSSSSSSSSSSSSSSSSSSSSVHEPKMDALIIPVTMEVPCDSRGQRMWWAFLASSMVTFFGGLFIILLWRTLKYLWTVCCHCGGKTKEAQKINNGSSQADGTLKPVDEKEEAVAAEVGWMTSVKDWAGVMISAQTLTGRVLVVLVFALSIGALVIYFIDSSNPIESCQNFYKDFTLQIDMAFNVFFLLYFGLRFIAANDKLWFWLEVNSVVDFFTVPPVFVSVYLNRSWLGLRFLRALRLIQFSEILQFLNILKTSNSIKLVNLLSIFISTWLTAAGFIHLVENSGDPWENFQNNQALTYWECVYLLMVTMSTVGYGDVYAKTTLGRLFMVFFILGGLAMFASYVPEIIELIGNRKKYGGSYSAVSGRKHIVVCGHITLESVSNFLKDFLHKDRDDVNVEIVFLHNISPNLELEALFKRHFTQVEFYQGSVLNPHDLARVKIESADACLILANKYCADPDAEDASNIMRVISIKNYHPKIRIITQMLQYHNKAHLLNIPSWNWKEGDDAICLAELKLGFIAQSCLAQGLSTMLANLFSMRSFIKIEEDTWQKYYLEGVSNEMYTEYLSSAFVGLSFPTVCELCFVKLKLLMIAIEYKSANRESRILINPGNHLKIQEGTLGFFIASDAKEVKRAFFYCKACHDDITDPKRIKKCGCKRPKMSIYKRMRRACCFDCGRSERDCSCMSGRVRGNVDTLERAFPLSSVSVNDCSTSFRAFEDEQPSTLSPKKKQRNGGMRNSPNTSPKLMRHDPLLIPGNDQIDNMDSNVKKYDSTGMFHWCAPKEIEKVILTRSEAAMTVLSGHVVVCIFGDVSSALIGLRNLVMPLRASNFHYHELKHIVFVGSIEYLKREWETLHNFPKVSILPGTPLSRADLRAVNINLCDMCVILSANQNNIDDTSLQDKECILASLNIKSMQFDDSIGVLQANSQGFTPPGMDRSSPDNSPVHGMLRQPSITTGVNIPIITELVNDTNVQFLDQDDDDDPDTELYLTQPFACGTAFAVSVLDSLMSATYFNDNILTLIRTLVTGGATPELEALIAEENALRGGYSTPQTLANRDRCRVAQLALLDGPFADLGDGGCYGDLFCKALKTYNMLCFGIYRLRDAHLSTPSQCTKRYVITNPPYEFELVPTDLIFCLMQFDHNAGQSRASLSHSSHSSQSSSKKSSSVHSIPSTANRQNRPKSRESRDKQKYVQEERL
Chain of Kv11.1 (hERG) (Q12809 whole entry): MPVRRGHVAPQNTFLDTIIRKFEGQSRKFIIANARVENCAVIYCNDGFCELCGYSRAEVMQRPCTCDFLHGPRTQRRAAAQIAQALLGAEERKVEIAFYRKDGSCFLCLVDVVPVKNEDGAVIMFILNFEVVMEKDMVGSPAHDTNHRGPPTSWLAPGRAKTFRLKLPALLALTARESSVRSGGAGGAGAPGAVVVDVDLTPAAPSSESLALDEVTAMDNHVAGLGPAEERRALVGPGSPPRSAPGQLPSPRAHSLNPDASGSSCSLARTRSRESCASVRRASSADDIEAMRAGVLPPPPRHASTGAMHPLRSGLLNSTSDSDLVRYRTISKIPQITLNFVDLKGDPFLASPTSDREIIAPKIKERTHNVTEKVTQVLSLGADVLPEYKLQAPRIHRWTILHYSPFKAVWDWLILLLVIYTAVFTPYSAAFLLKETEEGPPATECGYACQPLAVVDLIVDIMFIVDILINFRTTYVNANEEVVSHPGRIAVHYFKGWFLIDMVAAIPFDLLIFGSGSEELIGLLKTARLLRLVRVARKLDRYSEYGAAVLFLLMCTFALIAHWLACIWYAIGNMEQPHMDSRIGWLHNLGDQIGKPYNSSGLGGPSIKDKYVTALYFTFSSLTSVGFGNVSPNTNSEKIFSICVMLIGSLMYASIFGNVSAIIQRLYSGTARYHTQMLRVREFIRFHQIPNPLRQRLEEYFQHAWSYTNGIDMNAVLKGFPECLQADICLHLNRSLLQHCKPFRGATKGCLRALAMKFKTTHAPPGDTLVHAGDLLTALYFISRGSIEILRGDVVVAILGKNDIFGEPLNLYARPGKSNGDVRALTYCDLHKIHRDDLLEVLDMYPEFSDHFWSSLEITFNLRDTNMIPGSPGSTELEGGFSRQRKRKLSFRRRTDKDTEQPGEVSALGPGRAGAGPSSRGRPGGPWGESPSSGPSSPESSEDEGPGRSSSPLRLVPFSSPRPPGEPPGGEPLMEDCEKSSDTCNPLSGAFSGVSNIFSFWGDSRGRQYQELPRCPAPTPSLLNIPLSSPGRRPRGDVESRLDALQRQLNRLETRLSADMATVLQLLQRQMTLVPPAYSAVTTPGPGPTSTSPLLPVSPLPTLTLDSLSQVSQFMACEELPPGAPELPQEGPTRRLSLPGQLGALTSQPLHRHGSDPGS

Question: With `Nc1ccc(Oc2ccc(C(c3ccc(Oc4ccc(N)cc4)cc3)(C(F)(F)F)C(F)(F)F)cc2)cc1` [GI‐530159, 4,4′‐(hexafluoroisopropylidene)bis(p‐phenyleneoxy)dianiline] as the compound, how does the single-channel current amplitude [1] read?
Answer: not altered

Question: And the channel open probability ([1]; exemplar recording, 0.009 before application)?
Answer: 0.025

Question: And the “effect on Kv11.1 (hERG) current” value (Kv11.1 (hERG))?
Answer: −7.3 ± 5.1%

Question: What about the “enhancement of TREK1 current” value (hTREK1 [2]) of the same compound?
Answer: 69 ± 12%

Question: And the “activated current, TASK3 channels” value (TASK3 (K2P9.1))?
Answer: 0.02 ± 0.005 nA

Question: And the “effect on KCa1.1 (BK) current” value (KCa1.1 (BK))?
Answer: −3.3 ± 6.7%

Question: What about the “activator effect on Kv7.1” value (Kv7.1) of the same compound?
Answer: no activator effects

Question: And the “effect on hTREK1 current, Qpatch” value (hTREK1 [3])?
Answer: effective at reversibly enhancing current

— article PMC5980259, “GI‐530159, a novel, selective, mechanosensitive two‐pore‐domain potassium (K2P) channel opener, reduces rat dorsal root ganglion neuron excitability” (British Journal of Pharmacology, 2017)
